Experimental data: patent publication US9238653B2, “Antimalarial agents that are inhibitors of dihydroorotate dehydrogenase” (BOARD OF REGENTS, THE UNIVERSITY OF TEXAS SYSTEM, priority 2009, dated 2016)
Like-named read-outs stand apart in the source and are kept apart here.

How the values were obtained:
P. falciparum 3D7 = test: 3H-hypoxanthine uptake in P. falciparum-infected erythrocytes; type: cell-based, Plasmodium falciparum; settings: read-out: EC50 P. falciparum 3D7
pfDHOD = pfDHOD (Plasmodium falciparum (isolate 3D7), UniProt Q08210); test: DHOD enzyme inhibition, colorimetric DCIP reduction or direct orotic acid assay; type: biochemical
Procedure: Reactions are initiated by addition of enzyme to a final concentration in the range of about 5 nM to about 50 nM while maintaining the temperature of a circulating water bath at 25° C.
Assay solutions were prepared as discussed above, except that DCIP is not present and the solution is depleted of oxygen by the inclusion of an oxidase/reductase system, such as, 0.1 mg/ml of glucose oxidase, 0.02 mg/ml catalase and 50 mM glucose. The data obtained was fitted to equation 1, to determine the IC50 values of the representative compounds.

[1] = Plasmodium falciparum, 3D7, Erythrocyte
[2] = Plasmodium falciparum, 3D7, Erythrocyte, 3D7 strain

Sequence of pfDHOD (Q08210 24-569 limits assumed): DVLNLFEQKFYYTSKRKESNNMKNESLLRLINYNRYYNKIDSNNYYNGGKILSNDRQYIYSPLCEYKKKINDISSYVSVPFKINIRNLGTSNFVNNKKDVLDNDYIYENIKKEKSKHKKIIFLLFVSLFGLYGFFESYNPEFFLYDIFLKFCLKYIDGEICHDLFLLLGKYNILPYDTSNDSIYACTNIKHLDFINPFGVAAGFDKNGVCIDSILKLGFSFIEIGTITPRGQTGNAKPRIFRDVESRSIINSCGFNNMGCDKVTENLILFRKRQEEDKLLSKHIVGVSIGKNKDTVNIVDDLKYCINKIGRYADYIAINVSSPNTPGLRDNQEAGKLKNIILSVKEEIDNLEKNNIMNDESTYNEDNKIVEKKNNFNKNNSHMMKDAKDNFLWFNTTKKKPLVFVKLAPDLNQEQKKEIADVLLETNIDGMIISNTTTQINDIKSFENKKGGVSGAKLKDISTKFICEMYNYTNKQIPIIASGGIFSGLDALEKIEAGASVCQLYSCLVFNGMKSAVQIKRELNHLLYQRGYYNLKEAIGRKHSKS

SMILES | EC50 (P. falciparum 3D7; [2]) | IC50 (pfDHOD) | also measured
Cc1cc(Nc2ccc(S(F)(F)(F)(F)F)cc2)n2nc(C(C)(F)F)nc2n1 | – | – | EC50 (P. falciparum 3D7; [1]): 19 nM
Cc1cc(Nc2ccc(C(C)(C)C)c(F)c2)n2ncnc2n1 | 100 nM | 60 nM | –
Cc1cc(Nc2ccc(S(F)(F)(F)(F)F)cc2)n2ncnc2n1 | 18000 nM | 160 nM | –
FC(F)(F)c1ccc(Nc2cc(C(F)(F)F)nc3ncnn23)cc1 | > 10000 nM | 1700 nM | –
Cc1cc(Nc2ccc(Cl)c(F)c2)n2ncnc2n1 [drawing 338] | – | 510 nM | EC50 (P. falciparum 3D7; [1]): 3500 nM
Cc1ccc(Nc2c3c(nc4ncnn24)CCC3)cc1F | – | – | EC50 (P. falciparum 3D7; [1]): 8300 nM
Cc1cc(Nc2ccc(Cl)c(F)c2)n2nc(C(F)(F)F)nc2n1 | 250 nM | 520 nM | –
Cc1cc(NC2Cc3ccc(F)cc3C2)n2ncnc2n1 (centres unmarked) | – | 610 nM | EC50 (P. falciparum 3D7; [1]): 1300 nM
CCC(F)(F)c1nc2nc(C)cc(Nc3ccc(S(F)(F)(F)(F)F)cc3)n2n1 | – | – | EC50 (P. falciparum 3D7; [1]): 550 nM
Cc1cc(Nc2ccc(C(F)(F)F)c(C(F)(F)F)c2)n2ncnc2n1 | – | 540 nM | EC50 (P. falciparum 3D7; [1]): 2300 nM
Cc1cc(NC2CCc3cc(Cl)ccc3C2)n2ncnc2n1 (centres unmarked) | 10000 nM | 670 nM | –
Cc1cc(Nc2ccc(C(F)(F)F)c(F)c2)n2nc(C(C)(F)F)nc2n1 | 9.3 nM | 35 nM | –
Cc1cc(Nc2ccc(C(F)(F)F)cc2)n2nc(C(C)C)nc2n1 | – | 110 nM | EC50 (P. falciparum 3D7; [1]): 98 nM
Cc1cc(Nc2ccc(C(F)(F)F)cc2)n2nc(C(F)(F)F)nc2n1 | – | – | melting point: 124 to 126 °C
Cc1cc(Nc2ccc(C(F)(F)F)c(F)c2)n2ccnc2n1 [drawing 333] | 600 nM | 140 nM | –
Cc1cc(Nc2cc(F)c(C(F)(F)F)c(F)c2)n2nc(C(F)(F)F)nc2n1 | 4.8 nM | 22 nM | –
Cc1cc(Nc2ccc(C)c(Cl)c2)n2nc(C(F)(F)F)nc2n1 | 800 nM | 130 nM | –
Cc1cc(Nc2ccc3sccc3c2)n2ncnc2n1 | 70 nM | 90 nM | –
Cc1cc(NC2Cc3ccc(Br)cc3C2)n2ncnc2n1 (centres unmarked) | – | – | melting point: 164 °C
Cc1cc(NC2Cc3ccccc3C2)n2ncnc2n1 | 2400 nM | 500 nM | –
Cc1cc(C)cc(Nc2cc(C)nc3nc(C(F)(F)F)nn23)c1 | 700 nM | 220 nM | –

SMILES | EC50 (P. falciparum 3D7; [2]) | IC50 (pfDHOD) | also measured
Cc1cc(Nc2ccc3c(c2)CCC3)n2ccnc2n1 [Example 54, N-(2,3-dihydro-1H-inden-5-yl)-7-methylimidazo[1,2-a]pyrimidin-5-amine] | – | – | melting point: 255 to 257 °C
Cc1cc(Nc2ccc(Cl)c(F)c2)n2ncnc2n1 | – | – | melting point: 285 °C
Cc1cc(Nc2ccc(S(F)(F)(F)(F)F)cc2)n2nc(C(F)(F)F)nc2n1 | – | – | melting point: 178 to 180 °C
Cc1cc(Nc2ccc(CC(F)(F)F)cc2)n2ncnc2n1 [drawing 337] | – | 2470 nM | –
Cc1cc(Nc2ccc(S(F)(F)(F)(F)F)cc2)n2nc(C(F)(F)F)nc2n1 [drawing 344] | – | 130 nM | EC50 (P. falciparum 3D7; [1]): 140 nM
COc1cc2c(cc1OC)CC(Nc1cc(C)nc3ncnn13)C2 | – | 4620 nM | EC50 (P. falciparum 3D7; [1]): 7700 nM
Cc1cc(Nc2ccc3c(c2)CCCC3)n2ncnc2n1 [drawing 353] | – | 32 nM | EC50 (P. falciparum 3D7; 3D7 strain): 200 nM
Cc1cc(Nc2ccc(S(F)(F)(F)(F)F)cc2)n2nc(C)nc2n1 | 420 nM | 510 nM | –
Cc1cc(Nc2ccc3c(c2)CCCC3)n2ncnc2n1 [drawing 335] | 300 nM | 100 nM | –
Cc1cc(Nc2ccc(S(F)(F)(F)(F)F)cc2)n2nc(C3CC3)nc2n1 | 500 nM | – | –
Cc1cc(Nc2ccc(C(F)(F)F)cc2)n2ccnc2n1 | 330 nM | 77 nM | –
CCc1nc2nc(C)cc(Nc3ccc(S(F)(F)(F)(F)F)cc3)n2n1 | 100 nM | – | –
Cc1cc(Nc2ccc(C(F)(F)F)cc2)n2nc(C(F)(F)F)nc2n1 [drawing 329] | – | 35 nM | EC50 (P. falciparum 3D7; [1]): 73 nM
Cc1cc(Nc2cc(F)c(C(F)(F)F)c(F)c2)n2ncnc2n1 | 240 nM | 190 nM | –
Cc1cc(Nc2ccc(S(F)(F)(F)(F)F)cc2)n2ccnc2n1 | 600 nM | – | –
Cc1cc(Nc2ccc(C(F)(F)F)c(F)c2)n2ccnc2n1 [Example 51, N-(3-fluoro-4-(trifluoromethyl)phenyl)-7-methylimidazo[1,2-a]pyrimidin-5-amine] | – | – | melting point: 302 to 304 °C
Cc1cc(Nc2ccc(SC(F)(F)F)cc2)n2ncnc2n1 | > 4000 nM | 610 nM | –
CCc1c(C)nc2ncnn2c1Nc1ccc(C(C)C)cc1 | > 10000 nM | 1660 nM | –
Cc1cc(NC2CCc3cc(F)ccc3C2)n2ncnc2n1 (centres unmarked) | – | 630 nM | EC50 (P. falciparum 3D7; [1]): 2500 nM
Cc1cc(NC2Cc3cc(Cl)c(Cl)cc3C2)n2ncnc2n1 | > 5000 nM | 1200 nM | –
Cc1cc(Nc2ccc3c(c2)CCCC3)n2nc(C(F)(F)F)nc2n1 | – | 43 nM | –

SMILES | EC50 (P. falciparum 3D7; [2]) | IC50 (pfDHOD) | also measured
Cc1cc(NC2Cc3ccc(Br)cc3C2)n2ncnc2n1 (centres unmarked) [drawing 343] | – | 990 nM | EC50 (P. falciparum 3D7; [1]): 6600 nM
Cc1cc(Nc2ccc(F)cc2)n2nc(C(F)(F)F)nc2n1 | 8500 nM | 740 nM | –
CCc1c(C)nc2ncnn2c1Nc1ccc(OC(F)(F)F)cc1 | > 10000 nM | – | –
Cc1cc(NC2Cc3cc(F)c(F)cc3C2)n2ncnc2n1 | 1500 nM | 1000 nM | –
Cc1cc(Nc2ccc(S(F)(F)(F)(F)F)cc2)n2nc(C(C)C)nc2n1 | – | – | EC50 (P. falciparum 3D7; [1]): 420 nM
Cc1cc(NC2CCc3ccccc3C2)n2ncnc2n1 (centres unmarked) | – | 500 nM | EC50 (P. falciparum 3D7; [1]): 1800 nM
CC(C)c1ccc(Nc2c3c(nc4ncnn24)CCC3)cc1 | 1800 nM | 250 nM | –
Cc1cc(Nc2cc(F)c(C(F)(F)F)c(F)c2)n2nc(C(C)(F)F)nc2n1 | 30 nM | 20 nM | –
Cc1cc(Nc2ccc(Cl)cc2)n2nc(C(F)(F)F)nc2n1 | 260 nM | 90 nM | –
COc1nc2nc(C)cc(Nc3cccc(Cl)c3)n2n1 | 1000 nM | – | –
Cc1cc(Nc2ccc(CC(F)(F)F)cc2)n2ncnc2n1 [Example 25, 5-Methyl-N-(4-(2,2,2-trifluoroethyl)phenyl)-[1,2,4]triazolo[1,5-a]pyrimidin-7-amine] | – | – | melting point: 204 °C
Cc1cc(Nc2ccc(Cl)cc2)n2nc(C(C)(F)F)nc2n1 | 33 nM | 28 nM | –
Cc1cc(Nc2ccc(C(F)(F)F)cc2)n2nc(C3CC3)nc2n1 | – | 140 nM | EC50 (P. falciparum 3D7; [1]): 150 nM
Cc1cc(Nc2ccc(C(F)(F)F)cc2)n2nc(C(C)(F)F)nc2n1 | 7 nM | 38 nM | –
Brc1ccc(Nc2c3c(nc4ncnn24)CCCC3)cc1 | 9900 nM | 2120 nM | –
Cc1cc(Nc2ccc3c(c2)CCCC3)n2ccnc2n1 [Example 53, 7-Methyl-N-(5,6,7,8-tetrahydronaphthalen-2-yl)imidazo[1,2-a]pyrimidin-5-amine] | – | – | melting point: 264 to 266 °C
Cc1cc(Nc2ccc3c(c2)CCC3)n2ccnc2n1 [drawing 336] | 600 nM | 130 nM | –
CCC(F)(F)c1nc2nc(C)cc(Nc3ccc(C(F)(F)F)cc3)n2n1 | – | 190 nM | EC50 (P. falciparum 3D7; [1]): 45 nM
Cc1cc(NC2CCc3ccccc3C2)n2nc(C(F)(F)F)nc2n1 (centres unmarked) | – | 1200 nM | –
COc1nc2nc(C)cc(Nc3ccc(S(F)(F)(F)(F)F)cc3)n2n1 | 64 nM | 42 nM | –
